According to patent US6531511B1, “2-adamantanemethanamine compounds for treating abnormalities in glutamatergic transmission” (Vernalis Research Limited, priority 1999, dated 2003):
Where a name gives a salt, the structure may show the parent alone.

| melting point [°C] | Compound |
| --- | --- |
| 270 to 271 | Cc1ccccc1C1(CN)C2CC3CC(C2)CC1C3 (stereo not shown) (as salt: hydrochloride) |
| 89 to 90 | CCc1cccc(C2(CN)C3CC4CC(C3)CC2C4)c1 (stereo not shown) (as salt: hydrochloride) [Example 1, 2-(3-Ethylphenyl)-2-adamantanemethanamine hydrochloride] |
| 242 to 243 | Cc1cccc(C2(CN)C3CC4CC(C3)CC2C4)c1 (stereo not shown) (as salt: hydrochloride) [Example 2, 2-(3-Methylphenyl)-2-adamantanemethanamine hydrochloride] |
| 253 to 255 | NCC1(c2ccccc2)C2CC3CC(C2)CC1C3 (stereo not shown) (as salt: hydrochloride) [Example 3, 2-Phenyl-2-adamantanemethanamine hydrochloride] |
| 261 to 263 | Cc1ccc(C2(CN)C3CC4CC(C3)CC2C4)cc1 (stereo not shown) (as salt: hydrochloride) [Example 4, 2-(4-Methylphenyl)-2-adamantanemethanamine hydrochloride] |
| 262 to 263 | NCC1(c2ccc(F)cc2)C2CC3CC(C2)CC1C3 (stereo not shown) (as salt: hydrochloride) [Example 6, 2-(4-Fluorophenyl)-2-adamantanemethanamine hydrochloride] |
| > 300 | NCC1(c2ccc(Cl)cc2)C2CC3CC(C2)CC1C3 (stereo not shown) (as salt: hydrochloride) [Example 7, 2-(4-Chlorophenyl)-2-adamantanemethanamine hydrochloride] |
| 234 to 235 | COc1ccc(C2(CN)C3CC4CC(C3)CC2C4)cc1 (stereo not shown) (as salt: hydrochloride) [Example 8, 2-(4-Methoxyphenyl)-2-adamantanemethanamine hydrochloride] |
| 279 to 281 | NCC1(c2ccc(C(F)(F)F)cc2)C2CC3CC(C2)CC1C3 (stereo not shown) (as salt: hydrochloride) [Example 9, 2-(4-Trifluoromethylphenyl)-2-adamantanemethanamine hydrochloride] |
| 255 to 257 | NCC1(c2cccs2)C2CC3CC(C2)CC1C3 (stereo not shown) (as salt: hydrochloride) [Example 10, 2-(2-Thienyl)-2-adamantanemethanamine hydrochloride] |
